In PubChem BioAssay AID504542 (Sanford-Burnham Center for Chemical Genomics, 2011):
Calls of active or inactive are those of the source. No rule for the calls is given here.

System: S. cerevisiae TIM10 counterscreen strain, luminescence
Assay: TIM10 counterscreen strain luminescent signal reducers – S. cerevisiae, uHTS hits, counter-screen for tim10-1 inhibitor project, dose response (AID 504542)

| Structure (SMILES) | IC50 |
| --- | --- |
| CCOc1ccccc1NC(=O)/C=C/C(N)=O | 3.32 µM |
| CC(C)NC(=S)N/N=C1\CCCCc2ccccc21 | 3.66 µM |
| Cc1ccc(NC(=S)/N=C(\N)Nc2nc(C)c3cc(C)ccc3n2)c(C)c1 | 12.1 µM |
| COc1ccc(C(=O)O/N=C(\N)c2ccc(Br)cc2)cc1 | 7.29 µM |
| N=C(N)c1ccc(/C=C/c2ccc(C(=N)N)cc2O)cc1 | 4.36 µM |
| CC(C)C(=O)N1CCN(c2ccccc2NC(=O)c2ccc([N+](=O)[O-])o2)CC1 | 1.82 µM |
| Cc1cc(C)c(CSc2ncc(-c3ccc([N+](=O)[O-])cc3)[nH]2)c(C)c1 | 10.1 µM |
| COc1cc(C(=O)Nc2ccc(Cl)c(C(F)(F)F)c2)cc(OC)c1OC | 27.1 µM |
| COc1ccc(-c2nncnn2)cc1 | 3.43 µM |
| CCCOc1ccccc1NC(=O)/C=C/C(N)=O | 0.87 µM |
| Cc1ccc(/C(N)=N/OC(=O)C(C)c2ccc([N+](=O)[O-])cc2)cc1 (stereo not drawn) | 22 µM |
| CCOC(=O)/C=C/C(=O)Nc1cccc([N+](=O)[O-])c1 | 1.9 µM |
| C[C@@H]1CC=C[C@H]2[C@H]1C(=O)N(Cc1ccccc1)[C@H]2c1ccc(-c2ccoc2)cc1F | 7.07 µM |
| c1ccc(Nc2cccc(Nc3ccccc3)n2)cc1 | 5.97 µM |
| O=C1C2C3C=CC(CO)(O3)C2C(=O)N1c1ccccc1-c1ccccc1 (stereo not drawn) | 1.27 µM |
| Cc1ccc(NC(=O)c2ccc(Cl)c(N3C(=O)C=CC3=O)c2)cc1 | 4.36 µM |
| CNC(=O)c1nnsc1S(=O)(=O)c1ccc(Cl)cc1 | 12.9 µM |
| COc1ccc(Cl)cc1NC(=O)CN(C)C(=O)C12CC3CC(CC(Cl)(C3)C1)C2 | 12 µM |
| N/C(Cc1ccc(Cl)cc1Cl)=N\OC(=O)Cc1ccc(Cl)cc1 | 0.74 µM |
| O=c1c2ccccc2nc(/C=C/c2ccc([N+](=O)[O-])o2)n1CCCO | 4.49 µM |
| Cc1ccc(NC(=S)Nc2ccc(Cl)c(Cl)c2)c(OC(F)F)c1 | 9.07 µM |

| Structure (SMILES) | IC50 |
| --- | --- |
| Cc1ccc(OCC(=O)O/N=C(\N)Cc2ccc(Cl)cc2)cc1 | 56.7 µM |
| COc1ccc(-c2sc3cc4c(cc3c2C#CC2(N)CCCCC2)OCO4)cc1 | 8.21 µM |
| C=CC(=O)Oc1ccc(N2Cc3ccccc3C2=O)cc1 | 2.89 µM |
| O=c1c2ccccc2[se]n1-c1ccccc1 | 0.58 µM |
| Fc1ccc(CNC(=S)Nc2cccc(C(F)(F)F)c2)cc1 | 8.8 µM |
| COC(=O)c1c(N2C(=O)CC(Sc3ccccc3C(=O)O)C2=O)sc2c1CCCC2 (stereo not drawn) | 1.49 µM |
| NNc1nc(-c2ccccc2)c2cc(Br)ccc2n1 | 15.9 µM |
| N/C(=N\OC(=O)CCC1CCCC1)c1ccccc1 | 16.8 µM |
| Cc1cccc(NC(=S)N/N=C2/CCCCc3ccccc32)c1 | 2.28 µM |
| Cc1ccc(CNC(=O)c2ccc(Cn3nc(C)c(Cl)c3C)o2)cc1 | 10.1 µM |
| Cc1ccc(F)c([C@H]2C3C=CCC(c4ccccc4)C3C(=O)N2Cc2ccccc2)c1 (stereo partly drawn) | 6.99 µM |
| CCOC(=O)c1ccc(N=c2ssnc2Cl)cc1 | 1.87 µM |
| CC(C)CN(CC(C)C)C(=S)Nc1ccc(Cl)cc1 | 11 µM |
| CCCCNC(=S)N=Nc1c(O)[nH]c2ccccc12 | 3.19 µM |
| Cc1ccc(NC2=C/C(=N\S(=O)(=O)c3cccs3)c3ccccc3C2=O)c(C)c1 | 3.94 µM |
| CC[C@@H]1CC=C[C@H]2[C@H]1C(=O)N(Cc1ccccc1)[C@H]2c1ccoc1 | 2.5 µM |
| CCSc1nc2ccccc2n1C(=O)/C=C\c1ccc(OC)c(OC)c1 | 7.72 µM |
| O=C(O)/C=C/C(=O)c1ccc2c(c1)CCc1ccccc1-2 | 3.32 µM |
| O=C1CS(=O)(=O)N(Cc2cccc(F)c2)c2ccc(Br)cc21 | 4.69 µM |
| Cc1nc(Nc2ccccc2)sc1-c1ccccc1 | 3.09 µM |
| CC1=C/C(=N\OS(=O)(=O)c2ccccc2)C(C)=CC1=O | < 0.2 µM |

| Structure (SMILES) | IC50 |
| --- | --- |
| O=C(c1cc(COc2ccc(F)cc2Cl)on1)N1CCN(c2cnccn2)CC1 | 3.98 µM |
| COc1ccc(C(=O)O/N=C(\N)c2ccc(Cl)cc2)cc1 | 4.07 µM |
| Cn1c(NCCCO)nc2c(c1=O)C1(CCCCC1)Cc1ccccc1-2 | 6.86 µM |
| O=C(NC(=S)NNC(=O)c1ccccc1[N+](=O)[O-])c1ccc(Br)cc1 | 6.64 µM |
| Cc1ccc(F)c([C@H]2[C@@H]3C=CCC[C@@]3(C)C(=O)N2Cc2ccccc2)c1 | 7.6 µM |
| COc1ccc(NC2CCN(C3CC(=O)N(c4ccc(F)c(Cl)c4)C3=O)CC2)cc1 (stereo not drawn) | 2.91 µM |
| CCOC(=O)c1c(OCC)[nH]c2c1cc(O)c1ccccc12 | 8.27 µM |
| COc1ccccc1N1C(=O)CC(Sc2n[nH]c(-c3cccc(C)c3)n2)C1=O (stereo not drawn) | 3.62 µM |
| COc1ccc(/C(N)=N/OC(=O)c2ccc3c(c2)OCO3)cc1 | 4.94 µM |
| O=C(Nc1cccnc1)c1cn(-c2ccccc2)nc1-c1cccs1 | 8.73 µM |
| CCCOc1ccc(N2C(=O)CC(N3CCC(O)(c4cccc(C(F)(F)F)c4)CC3)C2=O)cc1 (stereo not drawn) | 3.95 µM |
| COc1ccc(Cl)cc1NC(=S)NCCc1ccc(F)cc1 | 11.3 µM |
| CC1(CC(=O)N/N=C/c2ccc(OCc3ccc(Cl)cc3Cl)cc2)OCCCO1 | 2.94 µM |
| N/C(=N\OC(=O)c1ccc(F)cc1)c1ccc(Br)cc1 | > 100 µM (inactive) |
| Cc1onc(-c2ccc3c(c2)OCO3)c1-c1ccc2[nH]ccc2c1 | 3.49 µM |
| COc1ccc(/C(C)=N/NC(=S)NCCc2ccccc2)cc1 | 7.83 µM |
| COC(=O)C(C(C)=O)C1=C/C(=N\S(=O)(=O)c2ccc(C)cc2)c2ccccc2C1=O (stereo not drawn) | 3.81 µM |
| COc1ccc2sc(N(CCCN(C)C)C(=O)c3ccc(S(=O)(=O)N4CCCc5ccccc54)cc3)nc2c1 | 8.76 µM |
| O=C(NNC(=S)Nc1cccc(C(F)(F)F)c1)c1ccc(Cl)cc1Cl | 8.13 µM |
| O=C(OCn1ncc(Br)c(Br)c1=O)c1ccccc1Cl | 1.41 µM |
| N/C(=N\OC(=O)CCC1CCCC1)c1cccc([N+](=O)[O-])c1 | 8.32 µM |

| Structure (SMILES) | IC50 |
| --- | --- |
| O=C(/C=C/c1ccc2c(c1)OCCCO2)c1ccccc1O | 4.68 µM |
| c1ccc(Nc2cccc(Nc3ccccc3)c2)cc1 | 5.02 µM |
| O=S(=O)(CCN(CCS(=O)(=O)C(F)(F)F)CC1CCCO1)C(F)(F)F (stereo not drawn) | 5.4 µM |
| O=C(OCn1ncc(Br)c(Br)c1=O)c1ccc(F)cc1 | 1.15 µM |
| CCCCNC(=S)Nc1ccc(C(F)(F)F)cc1 | 9.88 µM |
| COc1ccc(/C=C/C(=O)c2ccccc2)cc1Cn1nnc2ccccc21 | 3.86 µM |
| Fc1c(F)c(C(F)(F)F)c(F)c(F)c1N/N=C\c1cccs1 | 4 µM |
| COc1ccc(-c2cc(C3CC3)nc3sc(C#N)c(N)c23)cc1 | 4.46 µM |
| CC(C)Nc1nnc(Sc2ccc(Cl)cc2[N+](=O)[O-])s1 | 2.28 µM |
| CCOc1ccc(-n2cc(-c3ccccc3)c3c(=O)[nH]cnc32)cc1 | 5.89 µM |
| CN(C)CCCN(C(=O)c1cc2cc([N+](=O)[O-])ccc2s1)c1nc2cc3c(cc2s1)OCCO3 | 10.8 µM |
| Nc1nc(-c2ccc(Br)cc2)cs1 | 10.4 µM |
| COc1ccc2cc3cc(C(=O)NCCN4CCc5ccccc5C4)oc3nc2c1 | < 0.2 µM |
| S=C(NCCCc1ccccc1)Nc1ccc(Cl)cc1 | 3.88 µM |
| O=C1CC(Sc2nnnn2-c2ccccc2)C(=O)N1c1cccc(Cl)c1 (stereo not drawn) | 1.72 µM |
| CC(C)c1nnc(NC(=O)CCS(=O)(=O)c2nc(-c3cccs3)cc(C(F)(F)F)n2)s1 | 4.84 µM |
| CCCCc1ccc(NC(=S)Nc2ccc(Nc3ccc(OC)cc3)cc2)cc1 | 12.4 µM |
| CCCCCCCCCCOC(=O)Cn1c(COc2ccccc2OC)[n+](C)c2ccccc21 | 8.06 µM |
| Nc1ccccc1C(=O)/C=C/c1ccc2c(c1)OCO2 | 5.88 µM |
| CC(=O)N1CCN(c2cc(N3CCc4ccccc4C3)c(F)cc2[N+](=O)[O-])CC1 | 19.6 µM |
